Measured values taken from the supplement of paper PMC10307832.

Tests used:
Assay in all cases: relative viability (nuclei count vs DMSO), 5 days (fraction); higher = more cells survive
NCI-H2126 = tested on: NCI-H2126
Summary of the method: (§1)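 Each reported value is a median over duplicate plates. It expresses relative viability: treated-well nuclei count divided by vehicle-well nuclei count. Lung cancer cell lines in 1536-well plates were dosed by pin tool a day after seeding, alone with one drug or with a fixed anchor-drug dose plus five library-drug doses (not always all listed) in √10 steps, and nuclei were counted after 5 days.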

NCI-H1944 = tested on: NCI-H1944
Summary of the method: as §1

LCLC-97TM1 = tested on: LCLC-97TM1
Summary of the method: as §1

NCI-H1993 = tested on: NCI-H1993
Summary of the method: as §1

NCI-H441 = tested on: NCI-H441
Summary of the method: as §1

SK-LU-1 = tested on: SK-LU-1
Summary of the method: as §1

NCI-H1666 = tested on: NCI-H1666
Summary of the method: as §1

NCI-H727 = tested on: NCI-H727
Summary of the method: as §1

PC-14 = tested on: PC-14
Summary of the method: as §1

NCI-H1755 = tested on: NCI-H1755
Summary of the method: as §1

NCI-H2170 = tested on: NCI-H2170
Summary of the method: as §1

NCI-H647 = tested on: NCI-H647
Summary of the method: as §1

O=C(O)CCCCC(CCSCc1ccccc1)SCc1ccccc1 (configuration not stated) [CPI-613] + CS(=O)(=O)N1CCN(Cc2cc3nc(-c4cccc5[nH]ncc45)nc(N4CCOCC4)c3s2)CC1 [Pictilisib] (partner 1 µM)
relative viability (NCI-H2126; first compound 158.11 µM): 0.395 | relative viability (NCI-H2126; first compound 500 µM): 0.393 | relative viability (NCI-H1944; first compound 5 µM): 0.336 | relative viability (NCI-H1944; first compound 15.81 µM): 0.371 | relative viability (NCI-H1944; first compound 50 µM): 0.351 | relative viability (NCI-H1944; first compound 158.11 µM): 0.347 | relative viability (NCI-H1944; first compound 500 µM): 0.332 | relative viability (LCLC-97TM1; first compound 5 µM): 0.191 | relative viability (LCLC-97TM1; first compound 15.81 µM): 0.164 | relative viability (LCLC-97TM1; first compound 50 µM): 0.174 | relative viability (LCLC-97TM1; first compound 158.11 µM): 0.192 | relative viability (LCLC-97TM1; first compound 500 µM): 0.0531 | relative viability (NCI-H1993; first compound 5 µM): 0.762 | relative viability (NCI-H1993; first compound 15.81 µM): 0.698 | relative viability (NCI-H1993; first compound 50 µM): 0.715 | relative viability (NCI-H1993; first compound 158.11 µM): 0.648 | relative viability (NCI-H1993; first compound 500 µM): 0.496 | relative viability (NCI-H441; first compound 5 µM): 0.498 | relative viability (NCI-H441; first compound 15.81 µM): 0.468 | relative viability (NCI-H441; first compound 50 µM): 0.417 | relative viability (NCI-H441; first compound 158.11 µM): 0.147 | relative viability (NCI-H441; first compound 500 µM): 0.0254 | relative viability (SK-LU-1; first compound 5 µM): 0.533 | relative viability (SK-LU-1; first compound 15.81 µM): 0.428 | relative viability (SK-LU-1; first compound 50 µM): 0.49 | relative viability (SK-LU-1; first compound 158.11 µM): 0.46 | relative viability (SK-LU-1; first compound 500 µM): 0.264 | relative viability (NCI-H1666; first compound 5 µM): 0.512 | relative viability (NCI-H1666; first compound 15.81 µM): 0.351 | relative viability (NCI-H1666; first compound 50 µM): 0.404 | relative viability (NCI-H1666; first compound 158.11 µM): 0.15 | relative viability (NCI-H1666; first compound 500 µM): 0.0576 | relative viability (NCI-H727; first compound 5 µM): 0.359 | relative viability (NCI-H727; first compound 15.81 µM): 0.348 | relative viability (NCI-H727; first compound 50 µM): 0.348 | relative viability (NCI-H727; first compound 158.11 µM): 0.33 | relative viability (NCI-H727; first compound 500 µM): 0.0223 | relative viability (PC-14; first compound 5 µM): 0.747 | relative viability (PC-14; first compound 15.81 µM): 0.677 | relative viability (PC-14; first compound 50 µM): 0.637 | relative viability (PC-14; first compound 158.11 µM): 0.725 | relative viability (PC-14; first compound 500 µM): 0.526 | relative viability (NCI-H1755; first compound 5 µM): 0.39 | relative viability (NCI-H1755; first compound 15.81 µM): 0.4 | relative viability (NCI-H1755; first compound 50 µM): 0.415 | relative viability (NCI-H1755; first compound 158.11 µM): 0.359 | relative viability (NCI-H1755; first compound 500 µM): 0.116 | relative viability (NCI-H2170; first compound 5 µM): 0.293 | relative viability (NCI-H2170; first compound 15.81 µM): 0.307 | relative viability (NCI-H2170; first compound 50 µM): 0.256 | relative viability (NCI-H2170; first compound 158.11 µM): 0.293 | relative viability (NCI-H2170; first compound 500 µM): 0.0903 | relative viability (NCI-H647; first compound 5 µM): 0.58 | relative viability (NCI-H647; first compound 15.81 µM): 0.315 | relative viability (NCI-H647; first compound 50 µM): 0.384 | relative viability (NCI-H647; first compound 158.11 µM): 0.424 | relative viability (NCI-H647; first compound 500 µM): 0.412
